Measurements taken from PMC8699718, “A structurally conserved site in AUP1 binds the E2 enzyme UBE2G2 and is essential for ER-associated degradation” (PLoS Biology, 2021).
Ends that are not written are not given here.

B1: UBE2G2: ERAD ubiquitin-conjugating enzyme (E2); purified in vitro, N-terminally MYC-tagged in cells (protein)
chain: MAGTALKRLMAEYKQLTLNPPEGIVAGPMNEENFFEWEALIMGPEDTCFEFGVFPAILSFPLDYPLSPPKMRFTCEMFHPNIYPDGRVCISILHAPGDDPMGYESSAERWSPVQSVEKILLSVVSMLAEPNDESGANVDASKMWRDDREQFYKIAKQIVQKSLGL

Experiments:
UBE2G2 = assay: CHX chase: UBE2G2 turnover in HT1080 AUP1 KO cells; type: cell-based, human; conditions: GFP fusion transfected with MYC-UBE2G2, HT1080 AUP1 KO, compared with GFP-SCR
Description: Fig 7 G2BR^AUP1 protects UBE2G2 from degradation. (A) Indicated cells were assessed for steady state levels and turnover of endogenous UBE2G2 by CHX chase. (B) Transcript levels of endogenous UBE2G2 in AUP1 KO cells compared to HT1080 as determined by qPCR. Mean and standard deviation from three independent experiments is shown. […] (D) AUP1 KO cells were transfected with plasmids encoding MYC-UBE2G2 and GFP fusions of either a scrambled G2BR (SCR), G2BR^gp78, or G2BR^AUP1, and the turnover of UBE2G2 was assessed. (E) Relative abundance of gp78 (left panel) and AUP1 (right panel) in HT1080 cells was determined by resolving indicated amounts (in pmoles) of purified GST-gp78 (aa 429 to 611) or GST-AUP1 (aa 61 to 410) fusions alongside approximately 1 × 10^4 cellular equivalents of cell lysate and immunoblotting with gp78 or AUP1 antibodies. For each antibody, the amount of immunoreactivity in the lysate was compared to a defined quantity of a GST fusion protein of gp78 or AUP1 spanning the epitope recognized by the probing antibody. […] The data underlying this figure can be found in S1 and S8 Data. aa, amino acid; AUP1, ancient ubiquitous protein 1; CHX, cycloheximide; G2BR, UBE2G2 Binding Region; KO, knockout; qPCR, quantitative polymerase chain reaction; WT, wild type. […]

[1] = system: NHK (Null Hong Kong variant of alpha1-antitrypsin); assay: CHX chase: NHK degradation in HT1080 UBE2G2 KO cells; type: cell-based, human; conditions: re-expression in HT1080 UBE2G2 KO
Description: Fig 3 The AUP1–UBE2G2 interaction is required for ERAD. (A) Equimolar amounts of GST-AUP1 (aa 292 to 410) or GST were immobilized on glutathione beads and binding to the indicated in vitro translated ^35S-labeled E2s was assessed. Left panel is 5% of input used for binding. E2s are referred to by their unique alpha-numeric designation (e.g., UBE2G1 and UBE2J1). (B) HT1080 or UBE2G2 KO cells were transfected with INSIG-1-MYC and degradation assessed by CHX chase. […] (D) Cells were transfected with NHK-MYC and HA-ubiquitin and ubiquitination of NHK assessed following proteasome inhibition and IP (right panel). Left panel is 10% of total cell lysate used for IP, indicating no discernable change in total ubiquitination. (E) Levels of endogenous HRD1 were monitored by CHX chase in the indicated cell types. (F) Ubiquitination of endogenous HRD1 was assessed following IP with HRD1 antiserum. Arrow in upper panel indicates migration of unmodified HRD1. […]
Plasmid transfections were carried out using PolyFect (Qiagen, Germantown, MD, USA) or JetPrime (Polyplus, New York, NY, USA) reagents. […] Clarified lysates or immunoprecipitates were denatured by heating in NuPAGE LDS Sample Buffer with β-mercaptoethanol at 70°C for 10 minutes, resolved on Bis-Tris polyacrylamide gels in NuPAGE MES or MOPS SDS running buffer and analyzed by western blotting. […]

Molecule	UBE2G2 degradation and steady state level (UBE2G2)	NHK degradation in UBE2G2 KO cells [1]
GFP-G2BR^AUP1: GFP fusion of AUP1 aa 378 to 404 (SSWARQESLQERKQALYEYARRRFTER; also: GFP fusion; UniProt Q9Y679 378-404, looked up, fragment)	protected UBE2G2 from degradation and increased the steady state level of this E2	–
B1	–	restored NHK degradation
